The text below walks through data of ChEMBL document CHEMBL2176988 (J Med Chem, 2012).

Calls of active or inactive are those of the source. The calls are words filed in the database; no cut-off is given here. Bounds are passed on as bounds.

One may read the Ki as a dissociation constant, usually derived from enzyme kinetics or from competition with a known ligand. A word on the inhibition: it is the relative decrease from the control value, in per cent. High values mean strong suppression, low ones little suppression. A word on the Emax: it is the maximal effect, on the per cent scale that the assay sets. As usually defined, the EC50 is the concentration that produces a half-maximal response. Usually IC50 stands for the concentration that inhibits the measured activity by half.

In data set [1] the target is T1, Neuronal acetylcholine receptor; alpha4/beta2 (Homo sapiens, UniProt P17787+P43681). Briefly: Binding affinity to human alpha4beta2 nAChR expressed in xenopus oocyte.
T1 sequence (P17787 whole entry): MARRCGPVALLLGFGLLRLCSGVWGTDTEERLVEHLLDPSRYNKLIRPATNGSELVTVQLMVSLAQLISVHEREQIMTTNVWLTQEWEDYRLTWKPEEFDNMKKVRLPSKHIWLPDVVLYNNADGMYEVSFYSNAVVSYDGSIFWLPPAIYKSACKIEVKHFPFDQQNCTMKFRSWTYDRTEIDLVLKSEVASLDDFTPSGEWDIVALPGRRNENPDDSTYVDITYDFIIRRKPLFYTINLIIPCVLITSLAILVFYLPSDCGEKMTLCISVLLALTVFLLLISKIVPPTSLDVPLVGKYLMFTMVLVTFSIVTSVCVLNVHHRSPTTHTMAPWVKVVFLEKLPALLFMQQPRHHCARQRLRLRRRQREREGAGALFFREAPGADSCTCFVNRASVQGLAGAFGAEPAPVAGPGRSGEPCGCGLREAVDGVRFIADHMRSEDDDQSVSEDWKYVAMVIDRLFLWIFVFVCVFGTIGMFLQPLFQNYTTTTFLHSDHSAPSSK
T1 sequence (P43681 whole entry): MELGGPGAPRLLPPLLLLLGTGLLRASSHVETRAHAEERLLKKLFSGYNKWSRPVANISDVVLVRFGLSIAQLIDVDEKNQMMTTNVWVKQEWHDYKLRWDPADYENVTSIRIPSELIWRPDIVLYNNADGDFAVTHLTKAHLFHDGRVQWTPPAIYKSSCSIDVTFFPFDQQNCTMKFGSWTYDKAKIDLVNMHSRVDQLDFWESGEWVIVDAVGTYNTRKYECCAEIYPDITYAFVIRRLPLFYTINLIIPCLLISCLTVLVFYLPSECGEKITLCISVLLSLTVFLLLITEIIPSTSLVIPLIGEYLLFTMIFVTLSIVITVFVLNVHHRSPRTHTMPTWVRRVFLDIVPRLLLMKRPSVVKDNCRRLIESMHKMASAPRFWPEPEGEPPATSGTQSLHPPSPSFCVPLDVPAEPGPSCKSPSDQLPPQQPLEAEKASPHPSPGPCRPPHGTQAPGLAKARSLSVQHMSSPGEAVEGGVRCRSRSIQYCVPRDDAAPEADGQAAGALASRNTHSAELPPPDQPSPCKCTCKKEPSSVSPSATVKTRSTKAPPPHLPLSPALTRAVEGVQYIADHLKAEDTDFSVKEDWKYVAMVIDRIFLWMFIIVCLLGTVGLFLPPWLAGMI
In data set [2] the target is T1, Neuronal acetylcholine receptor; alpha4/beta2. The data set is described as follows: Displacement of [3H]methylcarbamylcholine from alpha4beta2 nAChR. The format is protein-complex assay. (Displacement assays read how much labelled ligand stays bound in the presence of the test substance.)
Data set [3] concerns the target T2, 5-hydroxytryptamine receptor 3A (Homo sapiens) (UniProt P46098).
T2 sequence (whole entry): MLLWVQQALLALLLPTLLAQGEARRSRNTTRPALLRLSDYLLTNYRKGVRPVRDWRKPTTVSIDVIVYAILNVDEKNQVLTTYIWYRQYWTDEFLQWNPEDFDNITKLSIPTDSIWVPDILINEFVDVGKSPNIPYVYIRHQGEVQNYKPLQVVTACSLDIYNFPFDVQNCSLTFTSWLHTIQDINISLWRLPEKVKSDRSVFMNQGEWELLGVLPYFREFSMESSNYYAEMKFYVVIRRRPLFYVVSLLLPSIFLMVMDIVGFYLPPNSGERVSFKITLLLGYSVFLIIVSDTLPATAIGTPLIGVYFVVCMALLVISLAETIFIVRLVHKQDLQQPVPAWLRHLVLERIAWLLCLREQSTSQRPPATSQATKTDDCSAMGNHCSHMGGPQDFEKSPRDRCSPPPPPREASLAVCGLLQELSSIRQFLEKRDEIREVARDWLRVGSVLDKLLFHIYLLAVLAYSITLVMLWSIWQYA
Briefly: Inhibition of 5HT3 receptor at 10 uM.

Data set [4] has as its target Acetylcholine receptor; alpha1/beta1/delta/gamma (Homo sapiens) (UniProt P02708+P07510+P11230+Q07001). The data set is described as follows: Agonist activity at alpha1beta1gammadelta nAChR. The data set is classed as functional.
For data set [5], the target named is Neuronal acetylcholine receptor; alpha4/beta2 (Rattus norvegicus, UniProt P09483+P12390). The data set is described as follows: Displacement of [3H]epibatidine from alpha4beta2 nAChR in Sprague-Dawley rat cortex after 2 hrs by liquid scintillation counting.
Sequence of Neuronal acetylcholine receptor; alpha4/beta2 (Rattus norvegicus, UniProt P09483+P12390) (P09483 whole entry): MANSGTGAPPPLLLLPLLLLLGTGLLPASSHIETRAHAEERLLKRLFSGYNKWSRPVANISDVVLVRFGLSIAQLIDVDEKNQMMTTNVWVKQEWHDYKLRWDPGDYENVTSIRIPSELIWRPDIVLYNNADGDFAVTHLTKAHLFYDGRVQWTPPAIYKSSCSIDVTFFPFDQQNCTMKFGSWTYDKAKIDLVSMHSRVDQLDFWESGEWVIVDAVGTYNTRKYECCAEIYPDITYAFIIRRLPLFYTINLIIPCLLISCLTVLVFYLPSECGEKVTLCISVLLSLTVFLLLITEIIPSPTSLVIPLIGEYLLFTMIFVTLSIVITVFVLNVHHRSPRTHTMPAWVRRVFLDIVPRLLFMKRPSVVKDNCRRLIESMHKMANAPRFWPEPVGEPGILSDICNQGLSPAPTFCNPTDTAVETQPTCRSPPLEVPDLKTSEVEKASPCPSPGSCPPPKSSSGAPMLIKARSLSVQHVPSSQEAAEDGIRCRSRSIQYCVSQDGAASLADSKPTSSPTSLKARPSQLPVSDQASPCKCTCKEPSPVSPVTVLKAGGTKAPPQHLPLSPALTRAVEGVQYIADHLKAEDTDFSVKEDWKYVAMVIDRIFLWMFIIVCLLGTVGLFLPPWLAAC
Sequence of Neuronal acetylcholine receptor; alpha4/beta2 (Rattus norvegicus, UniProt P09483+P12390) (P12390 whole entry): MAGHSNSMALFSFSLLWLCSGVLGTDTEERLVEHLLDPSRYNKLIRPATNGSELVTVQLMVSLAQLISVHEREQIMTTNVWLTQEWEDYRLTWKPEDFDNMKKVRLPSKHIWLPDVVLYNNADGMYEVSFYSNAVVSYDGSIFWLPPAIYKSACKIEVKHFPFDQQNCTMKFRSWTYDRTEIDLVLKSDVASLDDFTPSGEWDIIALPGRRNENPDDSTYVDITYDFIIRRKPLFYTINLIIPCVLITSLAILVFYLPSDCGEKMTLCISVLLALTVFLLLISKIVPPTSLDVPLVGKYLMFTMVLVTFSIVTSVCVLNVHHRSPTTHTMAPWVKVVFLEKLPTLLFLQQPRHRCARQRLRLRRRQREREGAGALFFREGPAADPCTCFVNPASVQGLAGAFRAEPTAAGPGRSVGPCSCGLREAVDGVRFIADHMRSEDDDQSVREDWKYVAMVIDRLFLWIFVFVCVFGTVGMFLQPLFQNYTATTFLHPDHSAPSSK
Data set [6] concerns the target T3, Neuronal acetylcholine receptor; alpha3/beta4 (Homo sapiens, UniProt P30926+P32297). Briefly: Agonist activity at human alpha3beta4 nAChR expressed in CHO cells assessed as calcium flux by calcium4-based FLIPR assay relative to nicotine. The format is functional, cell-based.
In data set [7] the test system is Rattus norvegicus. The data set is described as follows: Procognitive activity in Sprague-Dawley rat assessed as increase in working memory at 1 mg/kg, po administered QD for 3 days 30 mins prior to testing by novel object recognition test (reference value: 51%). The data set is classed as functional.
Data set [8] deals with T1, Neuronal acetylcholine receptor; alpha4/beta2. Briefly: Partial agonist activity at alpha4beta2 nAChR in human SH-EP1 cells assessed as calcium flux by calcium4-based FLIPR assay. The format is functional, cell-based. A general note: Calcium flux is commonly read through the fluorescence of an indicator in the cells.
For data set [9], the target named is T3, Neuronal acetylcholine receptor; alpha3/beta4. The data set is described as follows: Displacement of [3H]epibatidine from human alpha3beta4 nAChR expressed in CHO cells after 2 hrs by liquid scintillation counting. The format is cell-based.
Data set [10] deals with Rattus norvegicus. Briefly: Procognitive activity in Sprague-Dawley rat assessed as increase in working memory at 0.3 to 3 mg/kg, po administered QD for 3 days 30 mins prior to testing by novel object recognition test. The data set is classed as functional, organism-based.
Data set [11] has as its target T1, Neuronal acetylcholine receptor; alpha4/beta2. The data set is described as follows: Partial agonist activity at alpha4beta2 nAChR in human SH-EP1 cells assessed as calcium flux by calcium4-based FLIPR assay relative to nicotine. The format is functional, cell-based.
For data set [12], the target named is Cytochrome P450 2D6 (Homo sapiens, UniProt P10635). Briefly: Inhibition of CYP2D6. The format is ADME.
Data set [13] is described as follows: Inhibition of adrenergic alpha2 receptor at 10 uM.
The target in data set [14] is T1, Neuronal acetylcholine receptor; alpha4/beta2. The data set is described as follows: Displacement of [3H]nicotine from alpha4beta2 nAChR in human SH-EP1 cells after 2 hrs by liquid scintillation assay. The format is cell-based.
In data set [15] the target is hERG (KCNH2) (Homo sapiens, UniProt Q12809). The data set is described as follows: Inhibition of human ERG at 10 uM.
Sequence of hERG (KCNH2) (Q12809 whole entry): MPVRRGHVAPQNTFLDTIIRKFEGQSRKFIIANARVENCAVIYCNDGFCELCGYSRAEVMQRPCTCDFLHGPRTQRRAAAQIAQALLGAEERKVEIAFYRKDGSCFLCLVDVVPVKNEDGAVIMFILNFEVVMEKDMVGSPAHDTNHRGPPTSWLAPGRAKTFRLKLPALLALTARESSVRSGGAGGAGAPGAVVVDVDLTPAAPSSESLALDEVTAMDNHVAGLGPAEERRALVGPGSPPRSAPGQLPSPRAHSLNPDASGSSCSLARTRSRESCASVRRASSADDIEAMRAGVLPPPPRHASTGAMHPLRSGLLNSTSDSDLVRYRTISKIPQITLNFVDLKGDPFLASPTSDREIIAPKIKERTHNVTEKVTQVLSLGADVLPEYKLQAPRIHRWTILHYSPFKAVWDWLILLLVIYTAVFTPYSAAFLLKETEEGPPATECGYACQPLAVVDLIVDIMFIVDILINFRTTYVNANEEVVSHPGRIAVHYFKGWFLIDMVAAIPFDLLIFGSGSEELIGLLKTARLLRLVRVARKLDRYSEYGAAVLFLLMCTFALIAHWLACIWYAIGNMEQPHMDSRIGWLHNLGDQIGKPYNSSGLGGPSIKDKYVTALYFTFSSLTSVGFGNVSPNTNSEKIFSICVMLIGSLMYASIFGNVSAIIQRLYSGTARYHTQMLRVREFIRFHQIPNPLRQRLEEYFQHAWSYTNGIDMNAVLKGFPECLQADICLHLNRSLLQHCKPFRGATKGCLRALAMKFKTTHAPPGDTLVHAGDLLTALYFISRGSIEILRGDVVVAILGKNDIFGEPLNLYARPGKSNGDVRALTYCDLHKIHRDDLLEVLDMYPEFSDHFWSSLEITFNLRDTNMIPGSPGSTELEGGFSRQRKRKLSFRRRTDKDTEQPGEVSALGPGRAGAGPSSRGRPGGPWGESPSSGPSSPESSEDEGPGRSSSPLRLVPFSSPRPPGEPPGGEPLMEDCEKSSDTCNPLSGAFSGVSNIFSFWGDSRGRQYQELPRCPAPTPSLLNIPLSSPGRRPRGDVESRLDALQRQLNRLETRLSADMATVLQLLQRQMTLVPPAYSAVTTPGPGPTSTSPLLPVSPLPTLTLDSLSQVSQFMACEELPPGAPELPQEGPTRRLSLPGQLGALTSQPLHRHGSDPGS
For data set [16], the target named is T3, Neuronal acetylcholine receptor; alpha3/beta4. The data set is described as follows: Agonist activity at human alpha3beta4 nAChR expressed in CHO cells assessed as calcium flux by calcium4-based FLIPR assay. The data set is classed as functional, cell-based.
Data set [17] addresses Neuronal acetylcholine receptor subunit alpha-7 (Homo sapiens, UniProt P36544). Briefly: Displacement of [3H]epibatidine from human alpha7 nAChR expressed in CHO cells after 2 hrs by liquid scintillation counting. The format is cell-based.
Data set [18] can be described thus: Agonist activity at ganglion nAChR. The data set is classed as functional.
The target in data set [19] is T1, Neuronal acetylcholine receptor; alpha4/beta2. The data set is described as follows: Binding affinity to alpha4beta2 nAChR. The data set is classed as protein-complex assay.
For data set [20] the target is unchanged. Briefly: Agonist activity at alpha4beta2 nAChR in human SH-EP1 cells assessed as calcium flux by calcium4-based FLIPR assay relative to nicotine. The data set is classed as functional, cell-based.
The test system of data set [21] is Rattus norvegicus. Briefly: Procognitive activity in Sprague-Dawley rat assessed as increase in working memory at 0.1 to 0.3 mg/kg, po administered QD for 3 days 30 mins prior to testing by novel object recognition test. The format is functional, organism-based.
In data set [22] the target is T2, 5-hydroxytryptamine receptor 3A (Homo sapiens). The data set is described as follows: Inhibition of human 5HT3 receptor at 10 uM.
The target in data set [23] is T4, 5-hydroxytryptamine receptor 3A (Mus musculus) (UniProt P23979).
T4 sequence (whole entry): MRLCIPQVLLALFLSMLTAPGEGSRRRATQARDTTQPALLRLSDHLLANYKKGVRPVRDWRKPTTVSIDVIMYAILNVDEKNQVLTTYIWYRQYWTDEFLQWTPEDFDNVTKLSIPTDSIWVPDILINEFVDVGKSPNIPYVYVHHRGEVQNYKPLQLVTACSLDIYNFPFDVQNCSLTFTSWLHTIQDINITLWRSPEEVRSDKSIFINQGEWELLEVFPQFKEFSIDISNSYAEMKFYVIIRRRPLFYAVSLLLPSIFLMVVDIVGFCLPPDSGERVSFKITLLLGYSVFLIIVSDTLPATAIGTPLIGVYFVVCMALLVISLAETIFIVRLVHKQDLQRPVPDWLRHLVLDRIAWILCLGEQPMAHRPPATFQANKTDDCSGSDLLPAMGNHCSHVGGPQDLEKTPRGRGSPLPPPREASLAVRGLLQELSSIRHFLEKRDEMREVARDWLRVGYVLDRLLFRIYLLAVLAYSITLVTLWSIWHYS
The data set is described as follows: Inhibition of mouse 5HT3 receptor at 10 uM.

The target of data set [24] is T5, 5-hydroxytryptamine receptor 3A (Homo sapiens, UniProt P46098).
T5 sequence (P46098 whole entry): T2 sequence (whole entry)
Briefly: Inhibition of human 5HT3 receptor.

Data set [25] relates to Rattus norvegicus. Briefly: Procognitive activity in Sprague-Dawley rat assessed as recognition index at 0.1 mg/kg, po administered QD for 3 days 30 mins prior to testing by novel object recognition test (reference value: 50%). The format is functional.
The target in data set [26] is T1, Neuronal acetylcholine receptor; alpha4/beta2. Briefly: Agonist activity at alpha4beta2 nAChR in human SH-EP1 cells assessed as calcium flux by calcium4-based FLIPR assay. The data set is classed as functional, cell-based.
Data set [27] has the same target. Briefly: Apparent antagonist activity at alpha4beta2 nAChR in human SH-EP1 cells assessed as inhibition of nicotine-induced calcium flux by calcium4-based FLIPR assay relative to control. The data set is classed as functional, cell-based.
For data set [28] the target is unchanged. Briefly: Apparent antagonist activity at alpha4beta2 nAChR in human SH-EP1 cells assessed as inhibition of nicotine-induced calcium flux by calcium4-based FLIPR assay. The format is functional, cell-based.
For data set [29], the target named is T3, Neuronal acetylcholine receptor; alpha3/beta4. Briefly: Displacement of [3H]epibatidine from alpha3beta4 nAChR in human SH-SY5Y cells after 2 hrs by liquid scintillation counting. The format is cell-based.

Sequence of Neuronal acetylcholine receptor subunit alpha-7 (P36544 whole entry): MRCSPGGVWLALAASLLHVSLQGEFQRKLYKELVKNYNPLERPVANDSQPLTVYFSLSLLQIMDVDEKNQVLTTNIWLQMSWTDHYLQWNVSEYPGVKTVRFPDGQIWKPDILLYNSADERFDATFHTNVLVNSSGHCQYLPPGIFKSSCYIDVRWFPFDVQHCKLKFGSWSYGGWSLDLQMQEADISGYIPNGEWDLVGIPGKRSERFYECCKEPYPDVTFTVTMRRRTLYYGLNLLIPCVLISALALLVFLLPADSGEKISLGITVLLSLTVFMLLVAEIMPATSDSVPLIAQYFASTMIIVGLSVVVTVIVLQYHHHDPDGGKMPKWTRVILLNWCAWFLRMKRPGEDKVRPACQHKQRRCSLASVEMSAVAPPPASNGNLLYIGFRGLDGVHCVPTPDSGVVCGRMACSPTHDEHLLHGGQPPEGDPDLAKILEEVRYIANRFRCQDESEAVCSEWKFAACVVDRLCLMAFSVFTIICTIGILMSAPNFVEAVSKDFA
T3 sequence (P30926 whole entry): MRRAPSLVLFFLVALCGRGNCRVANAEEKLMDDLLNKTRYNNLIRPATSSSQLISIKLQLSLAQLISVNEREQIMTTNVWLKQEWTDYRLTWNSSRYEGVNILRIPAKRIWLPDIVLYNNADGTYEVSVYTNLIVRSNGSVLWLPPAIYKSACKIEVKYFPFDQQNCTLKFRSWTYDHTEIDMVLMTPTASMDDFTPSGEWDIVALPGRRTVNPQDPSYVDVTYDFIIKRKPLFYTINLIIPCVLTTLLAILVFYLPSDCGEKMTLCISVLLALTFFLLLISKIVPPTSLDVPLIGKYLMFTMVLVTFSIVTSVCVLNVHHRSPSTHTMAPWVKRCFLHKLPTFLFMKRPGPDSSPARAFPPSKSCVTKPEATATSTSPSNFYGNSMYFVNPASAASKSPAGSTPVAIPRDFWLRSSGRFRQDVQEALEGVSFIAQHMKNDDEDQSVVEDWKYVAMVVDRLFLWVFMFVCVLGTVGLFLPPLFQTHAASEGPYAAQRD
T3 sequence (P32297 whole entry): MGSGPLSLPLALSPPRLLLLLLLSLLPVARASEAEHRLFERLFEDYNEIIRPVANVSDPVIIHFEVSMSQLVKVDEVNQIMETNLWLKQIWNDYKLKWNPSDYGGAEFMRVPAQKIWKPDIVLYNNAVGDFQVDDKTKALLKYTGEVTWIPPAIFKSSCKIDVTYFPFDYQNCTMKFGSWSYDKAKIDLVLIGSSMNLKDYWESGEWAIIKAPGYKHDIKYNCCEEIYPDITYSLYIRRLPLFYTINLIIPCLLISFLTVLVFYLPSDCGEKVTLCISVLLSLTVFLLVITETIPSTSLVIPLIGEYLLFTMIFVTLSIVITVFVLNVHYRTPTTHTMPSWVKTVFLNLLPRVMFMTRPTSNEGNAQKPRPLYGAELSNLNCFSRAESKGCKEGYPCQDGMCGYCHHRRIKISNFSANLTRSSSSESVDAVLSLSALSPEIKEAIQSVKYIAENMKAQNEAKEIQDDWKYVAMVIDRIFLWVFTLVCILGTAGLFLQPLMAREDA

Regarding `CC(=O)/C=C1\CN2CCC1CC2`, affinity in data set [1] was put at a Ki of 13 nM.
As for `C(=C1/CN2CCC1CC2)/c1cccnc1`, the Ki in data set [2] amounted to 2 nM.
For `O=C(c1ccc(Cl)o1)N1CC2CNCC(C2)C1`, the inhibition in data set [3] is 40%; in data set [13], 35%. In addition, the result in data set [4] and in data set [18] was inactive. The inhibition constant (Ki) was 7 nM in data set [5], 6400 nM in data set [9], 5 nM in [14] and > 10000 nM in data set [17]. Further, the Emax in [6] came to 61%; in data set [11], 47%. Moreover, the “%max” value in [7] amounted to 75%. Besides, the half-maximal effective concentration (EC50) in data set [8] was 1400 nM; in [16] it was 15000 nM. The result in [10] was Active. Further, the “inhibition (INH)” value in data set [12] is recorded as “Not Active”. In data set [15], the inhibition at 10 µM was < 5%.
In data set [19], `C1=C(c2cccnc2)C2CCC(CC1)N2` (stereo not drawn) had an inhibition constant Ki of 0.27 nM.
On the same count and under the same terms, the figure for `c1cncc(N2CC3CNCC(C3)C2)c1` is 0.2 nM.
On to `O=C(c1ccc(Cl)o1)N1CC2CNCC2C1` (stereo not drawn) [AZD1446], for which the values for the maximum response (Emax) in data set [20] and in data set [6] were 120% and 10%, respectively. For the same compound, the outcome in data set [21] was Active. Also, the inhibition in [22] is 87%; in data set [23] it was 97%. In addition, the outcome in data set [4] and in [18] was inactive. Further, the inhibition constant Ki was 34 nM in data set [5]; > 10000 nM in [9]; 700 nM in [24]; 30 nM in data set [14]; 6700 nM in data set [17]. Also, in [12], the “inhibition (INH)” value is reported as “Not Active”. The “%max” value in data set [25] came out at 74%. In addition, the EC50 in data set [26] turned out to be 4900 nM; in data set [16], 70000 nM. Besides, the inhibition at 10 µM in data set [15] was < 5%.
`O=C(c1ccc(Oc2ccccc2)cc1)N1CC2CNCC2C1` (stereo not drawn): the Emax in data set [20] was found to be 9%; in data set [6], 12%. In [27], the Imax came to 94%. Also, the inhibition constant Ki in data set [5] worked out at 39 nM; in [9] it was 14000 nM; in data set [14], 19 nM; in data set [17], 13000 nM. The IC50 in data set [28] turned out to be 7800 nM. Moreover, the EC50 in data set [26] was 51000 nM; in data set [16], 25000 nM.
With `CCOc1cncc(/C=C/CCNC)c1`, the maximal response (Emax) was 57% in [20] and 10% in data set [6]. The Ki amounted to 6 nM in [5], 7000 nM in [29], 12 nM in data set [14] and 71000 nM in data set [17]. The 50% effective concentration (EC50) is 170 nM in data set [26] and 20000 nM in data set [16].
On to `CN1CCC=C(c2ccc(Cl)nc2)C1`, for which affinity in data set [19] was put at a Ki of 2.2 nM.
The same measure, in the same setting: the same measure for `CN[C@@H](C)C/C=C/c1cccnc1`: 24 nM.
Still for that read-out and setting: the figure for `CCC(=O)C1=CCCN(C)C1` [ARECOLON] is 5.8 nM.
